Data taken from patent publication US11447495B2, “Substituted benzo[f]imidazo[1,5-a][1,4]diazepines as GABA(a) receptor modulators” (priority 2016, dated 2022).

What was measured:
[1] = system: IL-17, TNFα, IL-4; assay: Lung cytokine levels by cytometric bead array; type: in vivo; settings: ova s/c mice
Description: The change of cytokine expression caused by compounds may be investigated in the lung of Ova S/C mice. Therefore, lungs of treated and non-treated asthmatic mice may be harvested, homogenized and cleared by centrifugation. Cytokines may be identified and quantified with specific antibodies and flow cytometry.
Anti-inflammatory properties of compounds in respect to cytokine production were investigated after the AHR measurement by harvesting the lungs of treated and non-treated Ova S/C mice (N=10). Whole lungs were homogenized in 200 μL of T-PER® tissue protein extraction reagent (Thermo Fisher Scientific Inc., Rockford, Ill.) containing 1× protease inhibitor cocktail using a hand-held tissue homogenizer. Homogenized lung samples were centrifuged at 10,000 RPM for 5 minutes to pellet cell/tissue debris. Tissue supernatant was collected for cytokine analysis using BD cytometric bead array mouse Th1/Th2/Th17 cytokine kit (BD Biosciences, San Jose, Calif.) following manufacturer's instruction. Data were analyzed using GraphPad Prism 4 (GraphPad Software, San Diego, Calif.) and expressed as mean±SEM. One-way analysis of variance (ANOVA) with Dunnet post hoc test was performed for statistical difference for multiple groups. […] Data represent mean±SEM from 10 mice in each group. *, **, and *** indicate p<0.05, p<0.01, and p<0.001 significance. The ova s/c mice expressed higher levels of IFN-γ, IL-6, and IL-2 but the change was not significant in comparison to normal mice.

[2] = system: lung cells; assay: Lung cell proliferation by EdU incorporation; type: in vivo; settings: Ova s/c mice, treated versus non-treated
Method: ASM hyperplasia was determined by incooperation of EdU into the DNA of newly formed cells. Herein, at the end of the ovalbumin sensitization and challenge protocol, mice received a single i.p. injection of EdU (Invitrogen, Carlsbad, Calif.) at a dose of 100 mg/kg. Mice were euthanized 4 hours after injection and the lungs formalin fixed, harvested and paraffin embedded. 6 μm sections of formalin fixed and paraffin embedded lung sections were mounted onto Fisher Superfrost Plus Slides. EdU staining was conducted using Click-iT™ EdU imaging kit (Invitrogen, Carlsbad, Calif.) according to manufacturer's instructions. Briefly lungs were deparaffinized in histoclear and rehydrated in graded ethanol. Tissue sections were washed twice with 3% bovine serum albumin (BSA) in PBS and permeablized with 0.5% Triton X-100 in PBS for 20 minutes. The sections were again washed twice with 3% BSA in PBS and then incubated with a Click-iT™ reaction cocktail containing Click-iT™ reaction buffer, CuSO4, Alexa Fluor® 488 Azide, and reaction buffer additive for 30 minutes in the dark. […] Lung sections of non-treated and GL-II-93 treated Ova s/c mice were analyzed for the incooperation of EdU, a thymidine analog that can be visualized after click chemistry with a fluorescent azide. For the negative control EdU was not injected resulting in no visible fluorescence. […]

## C[C@H]1N=C(c2ccccc2F)c2cc(Br)ccc2-n2cnc(C(=O)O)c21 [GL-II-93, (R)-8-bromo-6-(2-fluorophenyl)-4-methyl-4H-benzo[f]imidazo[1,5-a][1,4]diazepine-3-carboxylic acid]
[1]
  level of IL-4 in the mouse lung: reduced the levels of IL-17, TNFα, and IL-4
  level of IL-17 in the mouse lung: reduced the levels of IL-17
  level of TNFα in the mouse lung: reduced the levels of IL-17, TNFα
[2]
  proliferation of lung cells (EdU): Non-treated Ova S/C mice showed a high proliferation rate in comparison to GL-II-93 treated animals
